Reference: PMC6271742, “A Novel Phage-Library-Selected Peptide Inhibits Human TNF-α Binding to Its Receptors” (Molecules, 2014)
Blank lines part the entries; values can stand above or below the substance they belong to. Bridges are numbered along the chain shown (N, C = ends). Roman numbers before positions name the chains, in order. Where no end group is shown, it is not given here.

Tests used:
[1] = target: T1, hTNF-α binding to adalimumab (Homo sapiens, UniProt P01375); assay: SPR inhibition of hTNF-α binding to captured adalimumab; settings: 25 µM peptide, 10 nM hTNF-α, adalimumab captured via Protein A on CM5 chip, read-out: inhibition of TNF-α binding to adalimumab
T1 construct: peaks around 17,300, 34,700 and 52,100 Da, corresponding to monomeric, homodimeric and homotrimeric forms of hTNF-α; purchased Prospec
Method: The anti-hTNF-α monoclonal antibody adalimumab was captured on a protein-A-coated sensor chip. 10 nM hTNF-α was injected over the immobilized antibody in the presence of different concentrations (25, 10 and 1 µM) of the tetra-branched anti-TNF-α peptide (Figure 3A).
(§1) All the experiments were performed on a Biacore T100 instrument (GE Healthcare, Milan, Italy); materials were purchased from GE Healthcare unless otherwise specified. Adalimumab was a kind gift from Galeazzi, University of Siena. Biotinylated linear and tetra-branched TNF-peptides were immobilized on a SA sensor chip. Briefly, peptides diluted in HBS-EP+ were injected for 60 s at a flow rate of 10 µL/min, obtaining 300 and 700 RUs respectively. Different concentrations of hTNF-α, from 250 nM to 2 µM in HBS-EP+, were injected for 180 s at a flow rate of 75 µL/min onto immobilized peptides. Association and dissociation kinetic rate constants (kon and koff) and the equilibrium dissociation constant Kd were calculated using BIAevaluation 3.0 software. […] Adalimumab monoclonal antibody (1 µg/mL in HBS-EP+ for 45 s at a flow rate of 10 µL/min) was immobilized on a CM5 sensor chip previously coated with Protein A (6500 RUs). Competition experiments were carried out injecting 10 nM hTNF-α for 180 s at flow rate of 30 µL/min with various concentrations (1, 10 and 25 µM) of tetra-branched TNF-peptide. […]

[2] = system: homotrimeric form of hTNF-α; assay: MALDI-TOF MS analysis of hTNF-α oligomer dissociation; type: biochemical, human; settings: 5 min at room temperature, linear mode
Method: To determine whether the anti-TNF-α peptide destabilized the oligomeric form of hTNF-α, we evaluated the distribution of monomeric, dimeric and trimeric hTNF-α by MS in the presence of increasing concentrations of anti-TNF-α peptide.
The anti-TNF-α peptide was incubated in a 3-fold or 10-fold molar excess with respect with hTNF-α at room temperature for 5 min. The dissociation of hTNF-α was analysed by mass spectrometry using a sinapinic acid matrix (Sigma-Aldrich) and a protein standard II (mass range ~10,000–70,000 Da, Brucker Daltonics) in an ultrafleXtreme MALDI-TOF/TOF mass spectrometer (Bruker Daltonics) in linear mode.

murine TNF-α = assay: SPR specificity: binding of murine TNF-α to immobilized peptides; settings: data not shown
human TNF-α (hTNF-α) = target: T2, human TNF-α (hTNF-α) (Homo sapiens, UniProt P01375); assay: SPR binding of hTNF-α to immobilized biotinylated peptides (Biacore T100); settings: hTNF-α 250 nM to 2 µM over immobilized peptide
T2 construct: peaks around 17,300, 34,700 and 52,100 Da, corresponding to monomeric, homodimeric and homotrimeric forms of hTNF-α; purchased Prospec
Method: hTNF-α was injected over linear and tetra-branched peptides previously immobilized on a Biacore T100 SA sensor chip. hTNF-α was flowed at concentrations ranging from 250 nM to 2 µM. To assess any non-specific binding, hTNF-α was also injected over an empty flow cell.
as §1

biotinylated hTNF-α = assay: Phage ELISA of selected clones; type: binding, human; settings: streptavidin-coated 96-well plates coated with 20 nM biotinylated hTNF-α; phage-displayed peptide
Method: Random 12-mer peptide phage library Ph.D.™-12 (New England Biolabs, Ipswich, MA, USA) was incubated with biotinylated hTNF-α. 10^11 phage, diluted in PBS (137 mM NaCl, 2 mM KCl, 10 mM Na2HPO4, 2 mM KH2PO4, pH 7.4) containing 0.1% (v/v) Tween 20 (PBST) and 3% bovine albumin (BSA) and incubated with 50 nM biotinylated hTNF-α o/n at 4 °C, was added to 100 μL Dynabeads-M280 coupled with streptavidin (Invitrogen¸ Waltham, MA, USA), saturated with 5% BSA in PBST, for 15 min at room temperature. After washing 10 times with PBST, bound phages were eluted with 5 μM adalimumab for 60 min at room temperature. The amplified phages were titered and underwent two further rounds of biopanning as described above, except that the concentration of biotinylated hTNF-α was diminished (20 nM and 10 nM for the second and third rounds of panning, respectively) and washing was performed using 0.5% (v/v) Tween 20.
In alternative to the selection described above we performed the following panning using SPR technology. Biotinylated hTNF-α was immobilized to the streptavidin (SA) sensor chip surface, obtaining final 2000 Resonance Units. […] For both pannings, the binding of selected clones to hTNF-α after the last round of panning was evaluated by phage ELISA in streptavidin-coated 96-well plates coated with 20 nM biotinylated hTNF-α.

T1 sequence (P01375 77-233 limits assumed): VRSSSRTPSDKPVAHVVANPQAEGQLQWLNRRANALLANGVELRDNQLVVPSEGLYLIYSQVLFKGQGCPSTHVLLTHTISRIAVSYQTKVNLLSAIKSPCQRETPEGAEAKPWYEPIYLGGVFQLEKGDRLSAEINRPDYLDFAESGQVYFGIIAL
T2 sequence (P01375 77-233 limits assumed): as above

inhibition at 25 µM [1]: ~80% | homo-dimeric hTNF-α peak in MS (in words) ([2]; tenfold molar excess of peptide): the homo-dimeric form also disappeared
Substance: I: HIHDDLLRYYGWKK-NH2 / II: HIHDDLLRYYGWK / III: HIHDDLLRYYGW / IV: HIHDDLLRYYGW (amide I:13-IV:C, I:14-II:C, II:13-III:C) [tetra-branched anti-TNF-α peptide]
homo-trimeric hTNF-α peak in MS (in words) ([2]; threefold molar excess of peptide): The peak corresponding to the homo-trimeric form disappeared

hTNF-α binding (in words) (human TNF-α (hTNF-α)): bound hTNF-α in a dose-dependent manner
Substance: I: HIHDDLLRYYGWKK-NH2 / II: HIHDDLLRYYGWK / III: HIHDDLLRYYGW / IV: HIHDDLLRYYGW (amide I:13-IV:C, I:14-II:C, II:13-III:C; C-terminus assumed) [tetra-branched peptide]
binding for murine TNF-α (in words) (murine TNF-α): did not show any binding for murine TNF-α

Substance: HIHDDLLRYYGW
phage ELISA result for clones expressing the sequence (in words) (biotinylated hTNF-α): positive
